The values that follow come from ChEMBL document CHEMBL1131359, “Design of new inhibitors for cdc2 kinase based on a multiple pseudosubstrate structure” (Bioorg Med Chem Lett, 1998).

In assay [1] the target is Cyclin-dependent kinase 1/cyclin B (Homo sapiens, UniProt P06493). Kind of assay: Inhibitory concentration was determined by measuring phosphorylation of H1 histone using active human Cell division cycle 2-cyclin B complex. The format is protein-complex assay.
A short description of assay [2]: Inhibition of Calcium/calmodulin-dependent protein kinase at 24 uM (No inhibition).
In assay [3] the target is T1, cAMP-dependent protein kinase (PKA) (Homo sapiens) (UniProt P22694+P17612+P22612). Kind of assay: Inhibition of protein kinase A at 24 uM (No inhibition). The format is protein assay.
Assay [4] addresses T2, Cyclin-dependent kinase 1/cyclin B (Homo sapiens) (UniProt P06493+P14635+Q8WWL7+O95067). Nature of the assay: Inhibition of Cell division cycle 2-cyclin B at 24 uM (No inhibition). The class given is protein-complex assay.
For assay [5], the target named is T1, cAMP-dependent protein kinase (PKA) (Homo sapiens). Kind of assay: Inhibition of protein kinase A at 2.4 uM (No inhibition). The class given is protein assay.
The nature of assay [6]: Inhibition of Calcium/calmodulin-dependent protein kinase at 2.4 uM (No inhibition).
The target of assay [7] is T1, cAMP-dependent protein kinase (PKA) (Homo sapiens). Kind of assay: Inhibition of protein kinase A at 240 uM. The class given is protein assay.
Assay [8] addresses T3, Protein kinase C (PKC) (Homo sapiens) (UniProt O94806+P41743+P17252+P05129+Q05655+P05771+Q05513+Q02156+P24723+Q15139+Q04759). Kind of assay: Inhibition of protein kinase C at 2.4 uM. The format is protein assay.
Assay [9] addresses T3, Protein kinase C (PKC) (Homo sapiens). Kind of assay: Inhibition of protein kinase C at 240 uM. The class given is protein assay.
Assay [10] deals with T2, Cyclin-dependent kinase 1/cyclin B (Homo sapiens). Kind of assay: Inhibition of Cell division cycle 2-cyclin B at 240 uM (Partial inhibition). The format is protein-complex assay.
Assay [11] deals with T3, Protein kinase C (PKC) (Homo sapiens). Kind of assay: Inhibition of protein kinase C at 24 uM. The format is protein assay.
For assay [12], the target named is T2, Cyclin-dependent kinase 1/cyclin B (Homo sapiens). Nature of the assay: Inhibition of Cell division cycle 2-cyclin B at 2.4 uM (No inhibition). The format is protein-complex assay.
A short description of assay [13]: Inhibition of Calcium/calmodulin-dependent protein kinase at 240 uM (No inhibition).
Assay [14] addresses T1, cAMP-dependent protein kinase (PKA) (Homo sapiens). Kind of assay: Inhibition of protein kinase A at 240 uM (No inhibition). The format is protein assay.
The target in assay [15] is T2, Cyclin-dependent kinase 1/cyclin B (Homo sapiens). Nature of the assay: Inhibition of Cell division cycle 2-cyclin B at 24 uM (Partial inhibition). The format is protein-complex assay.
Assay [16] has the same target. To be noted: 240 uM.
Assay [17] has as its target T1, cAMP-dependent protein kinase (PKA) (Homo sapiens). Nature of the assay: Inhibition of protein kinase A at 24 uM (partial). The class given is protein assay.
Assay [18] can be described thus: Inhibition of Calcium/calmodulin-dependent protein kinase at 240 uM (Partial).

Activity calls are given as the source filed them. The calls are words filed in the database; no cut-off is given here. Residues, ends and D or L forms follow the SMILES beside them. *: point of attachment. X3 = CN(C)CCCn1cc(C2=C(c3cn(CCOCC*)c4ccccc34)C(=O)NC2=O)c2ccccc21; X4 = O=C1NC(=O)C(c2cn(CCOCCOCCOC*)c3ccccc23)=C1c1c[nH]c2ccccc12; X1 = O=C1NC(=O)C(c2cn(CCOCCOCC*)c3ccccc23)=C1c1c[nH]c2ccccc12; X2 = O=C1NC(=O)C(c2cn(CCOCC*)c3ccccc23)=C1c1c[nH]c2ccccc12 A value given as a limit tells only on which side of the number the result lay.

Turning to `O=C1NC(=O)C(c2cn(CCOCCOCCOCCO)c3ccccc23)=C1c1c[nH]c2ccccc12`, 55 µM corresponded to half-maximal inhibition in assay [1] (IC50).

As for `CNC(=O)[C@H](CCCCN)NC(=O)[C@H](CCCCN)NC(=O)[C@@H]1CCCN1C(=O)[C@H](CSCCOCCOCCOCCn1cc(C2=C(c3c[nH]c4ccccc34)C(=O)NC2=O)c2ccccc21)NC(C)=O`, half-maximal inhibition in [1] (IC50) was put at 31 µM. Against the preceding molecule, the IC50 is about 1.8-fold lower.

On to `CNC(=O)[C@H](CCCCN)NC(=O)[C@H](CCCCN)NC(=O)[C@@H]1CCCN1C(=O)[C@H](CSCCOCCOCCn1cc(C2=C(c3cn(CCCN(C)C)c4ccccc34)C(=O)NC2=O)c2ccccc21)NC(C)=O`, for which, in assay [1], the half-maximal inhibitory concentration (IC50) is more than 1000 µM.

With `O=C1NC(=O)C(c2cn(CCOCCO)c3ccccc23)=C1c1c[nH]c2ccccc12`, the inhibition result in assay [2], in [3], in assay [4], in [5], in assay [6] and in assay [12] was “inactive” each time. In addition, the inhibition result in [13] is “inactive”. Besides, the inhibition in assay [7] was more than 75%; in assay [8], more than 75%; in [9], more than 75%; in assay [10], “Weak activity”; in assay [11], more than 75%. In assay [1], the IC50 came to 4 µM.

The molecule `CN(C)CCCn1cc(C2=C(c3cn(CCOCCOCCO)c4ccccc34)C(=O)NC2=O)c2ccccc21` displayed an IC50 in assay [1] of 35 µM.

For `O=C1NC(=O)C(c2cn(CCOCCOCCO)c3ccccc23)=C1c1c[nH]c2ccccc12`, the midpoint of inhibition in assay [1], the IC50, lay at 285 µM.

The molecule `CN(C)CCCn1cc(C2=C(c3cn(CCOCCO)c4ccccc34)C(=O)NC2=O)c2ccccc21` yielded an IC50 in [1] of 22 µM.

As for `CNC(=O)[C@H](CCCCN)NC(=O)[C@H](CCCCN)NC(=O)[C@@H]1CCCN1C(=O)[C@H](CSCCOCCOCCn1cc(C2=C(c3c[nH]c4ccccc34)C(=O)NC2=O)c2ccccc21)NC(C)=O` (Ac-C(X1)PKK-NHMe), the inhibition result in [2], in assay [3], in [14], in [4], in [5] and in assay [6] was “inactive” each time. Also, the inhibition entry in assay [12] and in [13] was “inactive” throughout. Moreover, the inhibition in [8] was more than 75%; in [9] it was more than 75%; in [10], “Weak activity”; in assay [11], more than 75%. Half-maximal inhibition in assay [1] (IC50) required 4.5 µM.

Regarding `CNC(=O)[C@H](CCCCN)NC(=O)[C@H](CCCCN)NC(=O)[C@@H]1CCCN1C(=O)[C@H](CO)NC(=O)[C@H](CSCCOCCOCCn1cc(C2=C(c3c[nH]c4ccccc34)C(=O)NC2=O)c2ccccc21)NC(C)=O` (Ac-C(X1)SPKK-NHMe), in [1], the 50% inhibitory concentration (IC50) is 220 µM.

`CNC(=O)[C@H](CCCCN)NC(=O)[C@H](CCCCN)NC(=O)[C@@H]1CCCN1C(=O)[C@H](CSCCOCCn1cc(C2=C(c3c[nH]c4ccccc34)C(=O)NC2=O)c2ccccc21)NC(C)=O` (Ac-C(X2)PKK-NHMe) returned an IC50 in assay [1] of 98 µM. Compared with the last molecule, the IC50 is about 2.2-fold lower.

In the case of `CNC(=O)[C@H](CCCCN)NC(=O)[C@H](CCCCN)NC(=O)[C@@H]1CCCN1C(=O)[C@H](CSCCOCCn1cc(C2=C(c3cn(CCCN(C)C)c4ccccc34)C(=O)NC2=O)c2ccccc21)NC(C)=O` (Ac-C(X3)PKK-NHMe), the half-inhibitory concentration (IC50) in assay [1] was more than 1000 µM.

Take `CNC(=O)[C@H](CCCCN)NC(=O)[C@H](CCCCN)NC(=O)[C@@H]1CCCN1C(=O)[C@H](CO)NC(=O)[C@H](CSCOCCOCCOCCn1cc(C2=C(c3c[nH]c4ccccc34)C(=O)NC2=O)c2ccccc21)NC(C)=O` (Ac-C(X4)SPKK-NHMe): in assay [1], the half-inhibitory concentration (IC50) was found to be 570 µM.

With `CNC(=O)[C@H](CCCCN)NC(=O)[C@H](CCCCN)NC(=O)[C@@H]1CCCN1C(=O)[C@H](CS)NC(C)=O` (HELM PEPTIDE1{[ac].C.P.K.K.[CN[*:1]]}$$$$V2.0), in assay [1], the IC50 is more than 1000 µM.

Turning to `CN(C)CCCn1cc(C2=C(c3c[nH]c4ccccc34)C(=O)NC2=O)c2ccccc21` [GF-109203], the inhibition result in assay [2], in assay [5], in [6], in assay [12] and in [13] was “inactive” in each case. Further, the inhibition in assay [7] was more than 75%; in [8] it was more than 75%; in assay [9], more than 75%; in [15] it was “Weak activity”; in [11] it was more than 75%; in assay [16], more than 75%. Besides, the inhibition result in assay [17] is “Weak activity”. The molecule further came in with a half-maximal inhibitory concentration (IC50) in [1] of 19 µM.

On to `O=C1NC(=O)C(c2c[nH]c3ccccc23)=C1c1c[nH]c2ccccc12` [RO-316233], for which the inhibition entry in assay [2], in [5], in assay [6] and in assay [12] was “inactive” each time. In addition, the inhibition entry in assay [18] was “Weak activity”; in assay [7], more than 75%; in [15], “Weak activity”; in [16] it was more than 75%; in [17], “Weak activity”. The molecule further registered a half-inhibitory concentration (IC50) in [1] of 18 µM.

A word on the IC50: it is the concentration that inhibits the measured activity by half. Low readings indicate greater potency, high ones weaker potency. In general, inhibition refers to the share of the control response that was lost under treatment.
